EC50 data for twelve compounds are collected here from patent US9499550B2 (BRISTOL-MYERS SQUIBB COMPANY, priority 2012, dated 2016).

The subject of assay [1] is HCV genotype 1a (H77 strain) replicon in HUH-7 cells. Description: HCV replicon luciferase reporter assay, genotype 1a. The assay is classed as cell-based. The conditions noted are these: Hepatitis C virus, Huh-7, 72 h, HCV genotype 1a replicon luciferase, 3 days incubation, read-out: LE_1a (EC50, range). In a few lines:
(§1)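 Replicon inhibition for both genotypes was measured as Renilla luciferase signal (EnduRen, 7.5 μM final, 2 h) after 3-day, 37° C exposure of replicon-bearing HUH-7 cells in 4% FCS DMEM, 0.5% DMSO. The 1b construct carries S1179I; the 1a H77 construct carries P1496L and S2204I. Twenty-point, 3-fold dilutions were fitted four-parametrically for EC50, and CC50 was taken from multiplexed Cell Titer-Blue.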

For assay [2], the system named is HCV genotype 1b (Con1) replicon in HUH-7 cells. In words: HCV replicon luciferase reporter assay, genotype 1b. In kind it is cell-based. Particulars: Hepatitis C virus, Huh-7, 72 h, HCV genotype 1b replicon luciferase, 3 days incubation, read-out: LE_1b (EC50, range). In a few lines:
as §1

Take `CCC(C)(CC)OC(=O)N[C@@H]1C(=O)N2C[C@H](Oc3nccc4c5c(ccc34)OCCO5)C[C@H]2C(=O)N[C@]2(C(=O)NS(=O)(=O)C3CC3)C[C@H]2/C=C\CC[C@@H](C)C[C@H]1C` [Compound 5266, 3-methylpentan-3-yl((2R,6S,7R,9R,13aS,14aR,16aS,Z)-14a-((cyclopropylsulfonyl)carbamoyl)-2-((2,3-dihydro-[1,4]dioxino[2,3-f]isoquinolin-7-yl)oxy)-7,9-dimethyl-5,16-dioxo-1,2,3,5,6,7,8,9,10,11,13a,14,14a,15,16,16a-hexadecahydrocyclopropa[e]pyrrolo[1,2-a][1,4]diazacyclopentadecin-6-yl)carbamate]: the EC50 in assay [1] and in assay [2] was less than 5.46 nM each time.

With `C[C@H]1CC/C=C\[C@@H]2C[C@@]2(C(=O)NS(=O)(=O)C2CC2)NC(=O)[C@@H]2C[C@@H](Oc3nccc4c5c(ccc34)OC(F)(F)O5)CN2C(=O)[C@@H](NC(=O)OC(C)(C)C(F)(F)F)[C@H](C)C1` [Compound 5267, 1,1,1-trifluoro-2-methylpropan-2-yl((2R,6S,7R,9S,13aS,14aR,16aS,Z)-14a-((cyclopropylsulfonyl)carbamoyl)-2-((2,2-difluoro-[1,3]dioxolo[4,5-f]isoquinolin-6-yl)oxy)-7,9-dimethyl-5,16-dioxo-1,2,3,5,6,7,8,9,10,11,13a,14,14a,15,16,16a-hexadecahydrocyclopropa[e]pyrrolo[1,2-a][1,4]diazacyclopentadecin-6-yl)carbamate], the EC50 in assay [1] and in assay [2] was 4.82 to 103 nM throughout.

For `C[C@@H]1CC/C=C\[C@@H]2C[C@@]2(C(=O)NS(=O)(=O)C2CC2)NC(=O)[C@@H]2C[C@@H](Oc3nccc4c5c(ccc34)OC(F)(F)O5)CN2C(=O)[C@@H](NC(=O)OC(C)(C)C(F)(F)F)[C@H](C)C1` [Compound 5268, 1,1,1-trifluoro-2-methylpropan-2-yl((2R,6S,7R,9R,13aS,14aR,16aS,Z)-14a-((cyclopropylsulfonyl)carbamoyl)-2-((2,2-difluoro-[1,3]dioxolo[4,5-f]isoquinolin-6-yl)oxy)-7,9-dimethyl-5,16-dioxo-1,2,3,5,6,7,8,9,10,11,13a,14,14a,15,16,16a-hexadecahydrocyclopropa[e]pyrrolo[1,2-a][1,4]diazacyclopentadecin-6-yl)carbamate], the EC50 in assay [1] and in assay [2] was less than 5.46 nM throughout.

For the compound `C[C@H]1CC/C=C\[C@@H]2C[C@@]2(C(=O)NS(=O)(=O)C2CC2)NC(=O)[C@@H]2C[C@@H](Oc3nccc4c5c(ccc34)OC(F)(F)O5)CN2C(=O)[C@@H](NC(=O)O[C@H](C)C(F)(F)F)[C@H](C)C1` [Compound 5269, (R)-1,1,1-trifluoropropan-2-yl ((2R,6S,7R,9S,13aS,14aR,16aS,Z)-14a-((cyclopropylsulfonyl)carbamoyl)-2((2,2-difluoro-[1,3]dioxolo[4,5-f]isoquinolin-6-yl)oxy)-7,9-dimethyl-5,16-dioxo-1,2,3,5,6,7,8,9,10,11,13a,14,14a,15,16,16a-hexadecahydrocyclopropa[e]pyrrolo[1,2-a][1,4]diazacyclopentadecin-6-yl)carbamate], the EC50 in assay [1] and in assay [2] was 4.82 to 103 nM each time.

On to `C[C@@H]1CC/C=C\[C@@H]2C[C@@]2(C(=O)NS(=O)(=O)C2CC2)NC(=O)[C@@H]2C[C@@H](Oc3nccc4c5c(ccc34)OC(F)(F)O5)CN2C(=O)[C@@H](NC(=O)O[C@H](C)C(F)(F)F)[C@H](C)C1` [Compound 5270, (R)-1,1,1-trifluoropropan-2-yl ((2R,6S,7R,9R,13aS,14aR,16aS,Z)-14a-((cyclopropylsulfonyl)carbamoyl)-2((2,2-difluoro-[1,3]dioxolo[4,5-f]isoquinolin-6-yl)oxy)-7,9-dimethyl-5,16-dioxo-1,2,3,5,6,7,8,9,10,11,13a,14,14a,15,16,16a-hexadecahydrocyclopropa[e]pyrrolo[1,2-a][1,4]diazacyclopentadecin-6-yl)carbamate], for which the EC50 in assay [1] and in assay [2] was less than 5.46 nM each time.

As to `C[C@H]1CC/C=C\[C@@H]2C[C@@]2(C(=O)NS(=O)(=O)C2CC2)NC(=O)[C@@H]2C[C@@H](Oc3nccc4c5c(ccc34)OC(F)(F)O5)CN2C(=O)[C@@H](NC(=O)OCC2(C)CC2)[C@H](C)C1` [Compound 5271, (1-methylcyclopropyl)methyl ((2R,6S,7R,9S,13aS,14aR,16aS,Z)-14a-((cyclopropylsulfonyl)carbamoyl)-2-((2,2-difluoro-[1,3]dioxolo[4,5-f]isoquinolin-6-yl)oxy)-7,9-dimethyl-5,16-dioxo-1,2,3,5,6,7,8,9,10,11,13a,14,14a,15,16,16a-hexadecahydrocyclopropa[e]pyrrolo[1,2-a][1,4]diazacyclopentadecin-6-yl)carbamate], the EC50 in assay [1] and in assay [2] was 4.82 to 103 nM throughout.

`C[C@@H]1CC/C=C\[C@@H]2C[C@@]2(C(=O)NS(=O)(=O)C2CC2)NC(=O)[C@@H]2C[C@@H](Oc3nccc4c5c(ccc34)OC(F)(F)O5)CN2C(=O)[C@@H](NC(=O)OCC2(C)CC2)[C@H](C)C1` [Compound 5272, (1-methylcyclopropyl)methyl ((2R,6S,7R,9R,13aS,14aR,16aS,Z)-14a-((cyclopropylsulfonyl)carbamoyl)-2-((2,2-difluoro-[1,3]dioxolo[4,5-f]isoquinolin-6-yl)oxy)-7,9-dimethyl-5,16-dioxo-1,2,3,5,6,7,8,9,10,11,13a,14,14a,15,16,16a-hexadecahydrocyclopropa[e]pyrrolo[1,2-a][1,4]diazacyclopentadecin-6-yl)carbamate]: the EC50 in assay [1] and in assay [2] was less than 5.46 nM in each case.

As for `C[C@H]1CC/C=C\[C@@H]2C[C@@]2(C(=O)NS(=O)(=O)C2CC2)NC(=O)[C@@H]2C[C@@H](Oc3nccc4c5c(ccc34)N(C)CCO5)CN2C(=O)[C@@H](NC(=O)OC(C)(C)C)[C@H](C)C1` [Compound 5275, tert-butyl ((2R,6S,7R,9S,13aS,14aR,16aS,Z)-14a-((cyclopropylsulfonyl)carbamoyl)-7,9-dimethyl-2-((4-methyl-3,4-dihydro-2H-[1,4]oxazino[2,3-f]isoquinolin-7-yl)oxy)-5,16-dioxo-1,2,3,5,6,7,8,9,10,11,13a,14,14a,15,16,16a-hexadecahydrocyclopropa[e]pyrrolo[1,2-a][1,4]diazacyclopentadecin-6-yl)carbamate], the EC50 in assay [1] and in assay [2] was less than 5.46 nM throughout.

Regarding `C[C@@H]1CC/C=C\[C@@H]2C[C@@]2(C(=O)NS(=O)(=O)C2CC2)NC(=O)[C@@H]2C[C@@H](Oc3nccc4c5c(ccc34)N(C)CCO5)CN2C(=O)[C@@H](NC(=O)OC(C)(C)C)[C@H](C)C1` [Compound 5276, tert-butyl ((2R,6S,7R,9R,13aS,14aR,16aS,Z)-14a-((cyclopropylsulfonyl)carbamoyl)-7,9-dimethyl-2-((4-methyl-3,4-dihydro-2H-[1,4]oxazino[2,3-f]isoquinolin-7-yl)oxy)-5,16-dioxo-1,2,3,5,6,7,8,9,10,11,13a,14,14a,15,16,16a-hexadecahydrocyclopropa[e]pyrrolo[1,2-a][1,4]diazacyclopentadecin-6-yl)carbamate], the EC50 in assay [1] and in assay [2] was less than 5.46 nM in each case.

In the case of `C[C@H]1CC/C=C\[C@@H]2C[C@@]2(C(=O)NS(=O)(=O)C2CC2)NC(=O)[C@@H]2C[C@@H](Oc3nccc4c5c(ccc34)N(C)CCO5)CN2C(=O)[C@@H](NC(=O)OC(C)(C)C(F)(F)F)[C@H](C)C1` [Compound 5277, 1,1,1-trifluoro-2-methylpropan-2-yl((2R,6S,7R,9S,13aS,14aR,16aS,Z)-14a-((cyclopropylsulfonyl)carbamoyl)-7,9-dimethyl-2-((4-methyl-3,4-dihydro-2H-[1,4]oxazino[2,3-f]isoquinolin-7-yl)oxy)-5,16-dioxo-1,2,3,5,6,7,8,9,10,11,13a,14,14a,15,16,16a-hexadecahydrocyclopropa[e]pyrrolo[1,2-a][1,4]diazacyclopentadecin-6-yl)carbamate], the EC50 in assay [1] and in assay [2] was less than 5.46 nM throughout.

Consider `C[C@@H]1CC/C=C\[C@@H]2C[C@@]2(C(=O)NS(=O)(=O)C2CC2)NC(=O)[C@@H]2C[C@@H](Oc3nccc4c5c(ccc34)N(C)CCO5)CN2C(=O)[C@@H](NC(=O)OC(C)(C)C(F)(F)F)[C@H](C)C1` [Compound 5278, 1,1,1-trifluoro-2-methylpropan-2-yl((2R,6S,7R,9R,13aS,14aR,16aS,Z)-14a-((cyclopropylsulfonyl)carbamoyl)-7,9-dimethyl-2-((4-methyl-3,4-dihydro-2H-[1,4]oxazino[2,3-f]isoquinolin-7-yl)oxy)-5,16-dioxo-1,2,3,5,6,7,8,9,10,11,13a,14,14a,15,16,16a-hexadecahydrocyclopropa[e]pyrrolo[1,2-a][1,4]diazacyclopentadecin-6-yl)carbamate], for which the EC50 in assay [1] and in assay [2] was less than 5.46 nM in each case.

On to `[2H]C([2H])([2H])C(OC(=O)N[C@@H]1C(=O)N2C[C@H](Oc3nccc4c5c(ccc34)N(C)CCO5)C[C@H]2C(=O)N[C@]2(C(=O)NS(=O)(=O)C3CC3)C[C@H]2/C=C\CC[C@H](C)C[C@H]1C)(C([2H])([2H])[2H])C(F)(F)F` [Compound 5279, 1,1,1,3,3,3-hexadeutero-2-(trifluoromethyl)propan-2-yl((2R,6S,7R,9S,13aS,14aR,16aS,Z)-14a-((cyclopropylsulfonyl)carbamoyl)-7,9-dimethyl-2-((4-methyl-3,4-dihydro-2H-[1,4]oxazino[2,3-f]isoquinolin-7-yl)oxy)-5,16-dioxo-1,2,3,5,6,7,8,9,10,11,13a,14,14a,15,16,16a-hexadecahydrocyclopropa[e]pyrrolo[1,2-a][1,4]diazacyclopentadecin-6-yl)carbamate], for which the EC50 in assay [1] and in assay [2] was 4.82 to 103 nM each time.
